Laboratory results taken from patent publication US8513250B2 (Laboratoire Biodim, priority 2007, dated 2013).
Counter-ions that a name gives are not always drawn.

Target: T1, DltA enzyme (Streptococcus agalactiae serotype III, UniProt Q8VM67)
T1 construct: His-tag (from pET100 vector) (N); made in house; host or cells: E. coli BL21 (DE3) Star
T1 sequence (Q8VM67 1-511): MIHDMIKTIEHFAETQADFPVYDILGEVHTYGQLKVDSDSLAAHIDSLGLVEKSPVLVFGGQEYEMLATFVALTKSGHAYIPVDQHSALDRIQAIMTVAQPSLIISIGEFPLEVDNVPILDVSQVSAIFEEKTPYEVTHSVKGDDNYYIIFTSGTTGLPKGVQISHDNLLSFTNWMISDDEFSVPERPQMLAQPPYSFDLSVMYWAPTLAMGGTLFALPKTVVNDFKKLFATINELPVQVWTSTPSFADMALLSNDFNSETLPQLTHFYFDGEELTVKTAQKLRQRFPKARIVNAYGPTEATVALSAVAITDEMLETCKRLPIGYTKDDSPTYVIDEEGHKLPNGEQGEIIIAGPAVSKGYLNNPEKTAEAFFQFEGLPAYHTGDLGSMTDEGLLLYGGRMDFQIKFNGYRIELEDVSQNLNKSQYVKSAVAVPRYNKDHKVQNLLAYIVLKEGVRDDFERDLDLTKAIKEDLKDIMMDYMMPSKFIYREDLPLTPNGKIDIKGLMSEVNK
Test: DltA HTS assays (luminescent / fluorescent), inhibition of DltA enzymatic activity in vitro
Assay type: biochemical, S. agalactiae
Conditions: Table 1; DltA inhibition, HTS assays of method 1; read-out: IC50
From the text: The compounds effect on DltA enzyme has been based on the measure of the inhibition of DltA activity in vitro.
To this end, a recombinant protein Dlta was expressed and purified after cloning of the gene of S. agalatiae as described below:
Methods 1: DltA HTS Assays
The assay described below makes use of dithiothreitol (DTT) instead of DltC as reactive thiol in the catalyzed reaction. In fact, the inventors have shown that DTT, but also Coenzyme A and N-Acetylcysteamine are all thiols able to replace efficiently DltC. In addition, contrary to the prior art, radioactivity is not used: all the assays are based either on luminescent ATP detection, or on fluorescent AMP detection. They are easily amenable to miniaturized formats and fast readouts as required by HTS.
The assay buffer “AB” contains 50 mM Hepes pH8.0, 10 mM MgCl2, 50 mM KCl, 0.012% Triton-X100. The following components are added in a white polystyrene Costar plate up to a final volume of 30 μL: 3 μL DMSO, or inhibitor dissolved in DMSO and 27 μL DltA enzyme and DTT in AB. After 30 min of pre-incubation at room temperature, 30 μL of Substrates mix in AB are added in each well to a final volume of 60 μL. This reaction mixture is then composed of 10 nM DltA (produced in house from S. agalactiae), 0.5 mM D-Alanine (Sigma), 0.5 μM ATP (Sigma) and 1 mM DTT (Biochemika) in assay buffer. After 90 min of incubation at room temperature, 30 μL of the revelation mix are added to a final volume of 90 μL, including the following constituents at the respective final concentrations: 2 nM luciferase (Sigma), 30 μM D-luciferin (Sigma), 100 μM N-acetylcysteamine (Aldrich). Luminescence intensity is immediately measured on an Analyst-HT (Molecular Devices) and converted into inhibition percentages. For IC50 (Inhibitory Concentration 50%) determinations, the inhibitor is added at 6 to 10 different concentrations, and the related inhibitions are fitted to a classical langmuir equilibrium model using XLFIT (IDBS).
The assay buffer “AB” contains 50 mM Hepes pH8.0, 10 mM MgCl2, 50 mM KCl, 0.012% Triton-X100. The following components are added in a black polystyrene Costar plate up to a final volume of 50 μL: 5 μL DMSO, or inhibitor dissolved in DMSO and 45 μL DltA enzyme and DTT in AB. After 30 min of pre-incubation at room temperature, 50 μL of Substrates-revelation mix in AB are added in each well to a final volume of 100 μL. This reaction mixture is then composed of 5 nM DltA (produced in house from S. agalactiae), 0.5 mM D-Alanine (Sigma), 10 μM ATP (Sigma), 1 mM DTT (Biochemika), 10 nM Adenylate kinase (produced in house), 5 u/mL Pyruvate Kinase (Sigma), 50 μM phosphoenolpyruvate (Sigma), 5 u/mL Lactate deshydrogenase (Sigma) and 3 μM NADH (Sigma) in assay buffer. Fluorescence intensity of NADH (λex=360 nm, λem=520 nm) is immediately measured kinetically by a Fluostar Optima (BMG). Inhibition percentages are derived from fitted initial velocities. For IC50 determinations, the inhibitor is added at 6 to 10 different concentrations, and the related inhibitions are fitted to a classical langmuir equilibrium model using XLFIT (IDBS). FIG. 2 represents the data obtained using this method.
The capacity of compounds to inhibit DltA enzymatic activity was assessed using the DltA HTS assays described in method 1.

| Compound | IC50 |
| --- | --- |
| OCCCNc1nc2cc(C(F)(F)F)ccc2n2c(CO)cnc12 [Example 42, 3-{[1-(hydroxymethyl)-7-(trifluoromethyl)imidazo[1,2-a]quinoxalin-4-yl]amino}propan-1-ol] | 1.1 µM |
| OCCCNc1nc2cc(C(F)(F)F)ccc2n2c(-c3ccc(N4CCOCC4)cc3)cnc12 [Example 14, 3-{[1-(4-N-morpholinophenyl)-7-(trifluoromethyl)imidazo[1,2-a]quinoxalin-4-yl]amino}propan-1-ol] | 0.46 µM |
| OCCCNc1nc2cc(C(F)(F)F)ccc2c2c1ncn2[C@H]1CC[C@H](O)CC1 [Example 26, 4-[4-(3-hydroxy-propylamino)-7-trifluoromethyl-imidazo[4,5-c]quinolin-1-yl]-cyclohexanol] | 20 µM |
| NCc1ccc(-c2cnc3c(NCCCO)nc4cc(C(F)(F)F)ccc4n23)cc1 [Example 18, 3-({1-[4-(aminomethyl)phenyl]-7-(trifluoromethyl)imidazo[1,2-a]quinoxalin-4-yl}amino)propan-1-ol] | 0.24 µM |
| OCCCNc1nc2cc(C(F)(F)F)ccc2n2c(-c3cc(-c4ccccc4)n[nH]3)cnc12 [Example 32, 3-({1-[3-phenyl-1H-pyrazol-5-yl]-7-(trifluoromethyl)imidazo[1,2-a]quinoxalin-4-yl}amino)propan-1-ol] | 0.042 µM |
| CNC(=O)c1ccc(-c2cnc3c(NCCCO)nc4cc(C(F)(F)F)ccc4n23)cc1 [Example 15, 4-{4-[(3-hydroxypropyl)amino]-7-(trifluoromethyl)imidazo[1,2-a]quinoxalin-1-yl}-N-methylbenzamide] | 0.2 µM |
| OCCCNc1nc2cc(C(F)(F)F)c(CNc3ccccn3)cc2n2ccnc12 [Example 53, 3-({8-[(pyridin-2-ylamino)methyl]-7-(trifluoromethyl)imidazo[1,2-a]quinoxalin-4-yl}amino)propan-1-ol] | 0.51 µM |
| OCCCNc1nc2cc(C(F)(F)F)ccc2n2c(-c3cn(Cc4ccccc4)nn3)cnc12 [Example 34] | 0.58 µM |
| COc1cc(-c2cnc3c(NCCCO)nc4cc(C(F)(F)F)ccc4n23)ccc1N [Example 21] | 0.27 µM |
| COc1ccc(-c2cnc3c(NCCCO)nc4cc(C(F)(F)F)ccc4n23)cc1 [Example 10, 3-{[1-(4-methoxyphenyl)-7-(trifluoromethyl)imidazo[1,2-a]quinoxalin-4-yl]amino}propan-1-ol] | 0.23 µM |
| OCCCNc1nc2cc(C(F)(F)F)c(NCc3ccccc3)cc2n2ccnc12 [Example 56, 3-{[8-(benzylamino)-7-(trifluoromethyl)imidazo[1,2-a]quinoxalin-4-yl]amino}propan-1-ol] | 0.81 µM |
| OCCCNc1nc2cc(C(F)(F)F)ccc2n2c(-c3ncc[nH]3)cnc12 [Example 46, 3-{[1-(1H-imidazol-2-yl)-7-(trifluoromethyl)imidazo[1,2-a]quinoxalin-4-yl]amino}propan-1-ol] | 3.5 µM |
| OCCCNc1nc2cc(C(F)(F)F)c(Br)cc2n2ccnc12 [Example 52, 3-(8-bromo-7-trifluoromethyl-imidazo[1,2-a]quinoxalin-4-ylamino)-propan-1-ol] | 8.7 µM |
| OCCCNc1nc2cc(C(F)(F)F)ccc2n2c(-c3cc(-c4cccnc4)n[nH]3)cnc12 [Example 33, 3-({1-[3-(3-pyridinyl)-1H-pyrazol-5-yl]-7-(trifluoromethyl)imidazo[1,2-a]quinoxalin-4-yl}amino)propan-1-ol] | 0.025 µM |
| CCSc1ccc2c(c1)nc(NCCCO)c1nccn12 [Example 6] | 6.5 µM |
| OCCCNc1nc2cc(C(F)(F)F)ccc2n2c(Br)cnc12 [Example 2, 3-{[1-bromo-7-(trifluoromethyl)imidazo[1,2-a]quinoxalin-4 yl]amino}propan-1-ol] | 2.5 µM |
| CC(=O)Nc1cccc(-c2cnc3c(NCCCO)nc4cc(C(F)(F)F)ccc4n23)c1 [Example 8, N-{3-[4-(3-Hydroxy-propylamino)-7-trifluoromethyl-imidazo[1,2-a]quinoxalin-1-yl]-phenyl}-acetamide] | 0.12 µM |
| CC(=O)N1CC=C(c2cnc3c(NCCCO)nc4cc(C(F)(F)F)ccc4n23)CC1 [Example 28, 1-{4-[4-(3-hydroxy-propylamino)-7-trifluoromethyl-imidazo[1,2-a]quinoxalin-1-yl]-3,6-dihydro-2H-pyridin-1-yl}-ethanone] | 0.65 µM |
| OCCCNc1nc2cc(-c3ccccc3C(F)(F)F)ccc2n2ccnc12 [Example 5, 3-({7-[2-(trifluoromethyl)phenyl]imidazo[1,2-a]quinoxalin-4-yl}amino)propan-1-ol] | 0.56 µM |
| C=Cc1cnc2c(NCCCO)nc3cc(C(F)(F)F)ccc3n12 [Example 22, 3-{[7-(trifluoromethyl)-1-vinylimidazo[1,2-a]quinoxalin-4-yl]amino}propan-1-ol] | 1 µM |
| OCCCNc1nc2cc(C(F)(F)F)ccc2n2c(-c3[nH]ncc3Cl)cnc12 [Example 38, 3-({1-(4-chloro-1H-pyrazol-5-yl)-7-(trifluoromethyl)imidazo[1,2-a]quinoxalin-4-yl}amino)propan-1-ol] | 0.0135 µM |
| O=P(O)(O)OCCCNc1nc2cc(C(F)(F)F)ccc2n2c(-c3ccn[nH]3)cnc12 [Example 58, Phosphoric acid mono-{3-[1-(2H-pyrazol-3-yl)-7-trifluoromethyl-imidazo[1,2-a]quinoxalin-4-ylamino]-propyl}ester, disodium salt] | 19 µM |
